# Test results reported in US12396984B2, “Managing microbial dysbiosis with temocillin” (Entasis Therapeutics, Inc., priority 2019, dated 2025).
# Where two headings read alike, the source gives them in different places.
# What was measured:
# [1] = tested on: MMX 9711 Bacteroides salyersiae; experiment: Agar-dilution antibacterial assay under anaerobic conditions; format: cell-based; settings: Bacteroidetes
# Protocol: (§1) Representatives of human gut anaerobic commensals belonging to the 3 major phyla, Firmicutes, Actinobacteria and Bacteroidetes were tested in standard agar-dilution antibacterial assays run under anaerobic conditions. Firmicutes and Actinobacteria are part of the healthy human gut and their levels are compromised in Crohn's patients.
# [2] = tested on: MMX 1722 Lactobacillus casei; experiment: as above; format: cell-based; settings: Lacticaseibacillus casei, Firmicutes
# Protocol: as §1
# [3] = tested on: MMX 10069 Bifidobacterium adolescentis; experiment: as above; format: cell-based; settings: Actinobacteria
# Protocol: as §1
# [4] = tested on: ATCC 23272 Lactobacillus reuteri; experiment: as above; format: cell-based; settings: Limosilactobacillus reuteri, ATCC23272, Firmicutes
# Protocol: as §1
# [5] = tested on: MMX 6660 Streptococcus intermedius; experiment: as above; format: cell-based; settings: Firmicutes
# Protocol: as §1
# [6] = tested on: ATCC 15702 Bifidobacterium infantis; experiment: as above; format: cell-based; settings: ATCC15702, Actinobacteria
# Protocol: as §1
# [7] = tested on: MMX 3478 Bacteroides fragilis; experiment: as above; format: cell-based; settings: Bacteroidetes
# Protocol: as §1
# [8] = tested on: ATCC 25986 Collinsella aerofaciens; experiment: as above; format: cell-based; settings: ATCC25986, Actinobacteria
# Protocol: as §1
# [9] = tested on: Firmicutes, Actinobacteria and Bacteroidetes; experiment: Agar-dilution antibacterial assay, human gut anaerobic commensals (panel summary); format: cell-based; settings: for antibacterial activity against firmicutes, actinobacteria and bacteroidetes (normal GI flora): summary in words
# Protocol: as §1
# [10] = tested on: ATCC 12290 Bacteroides thetaiotaomicron; experiment: microbe, parasite or virus in culture; format: cell-based
# Protocol: as §1
# [11] = tested on: MMX 9797 Clostridium innocuum; experiment: Agar-dilution antibacterial assay under anaerobic conditions; format: cell-based; settings: Firmicutes
# Protocol: as §1
# Crohn's AIEC Isolates [12] = settings: AIEC Crohn's clinical isolates
# gut microbiome = experiment: Post-treatment measurement of microbiome health (16S rRNA gene sequencing of fecal pellets); format: in vivo, mice; settings: 30 mg/kg oral gavage once a day for 3 days, p<0.05
# Protocol: Mice were dosed once a day for 3 consecutive days post AIEC stable GI colonization. Fecal pellets from four mice (1-2 per mouse) were pooled and subjected to bacterial DNA enrichment and analyzed using the Illumina MiSeq 2. Bacterial abundance and diversity was quantified using 16S rRNA gene sequencing data, analyzed and compared with naïve mice.
# Crohn's AIEC Isolates [13] = experiment: microbe, parasite or virus in culture; settings: Escherichia coli
# [14] = tested on: AIEC strain (Phylotype D); experiment: GI AIEC decolonization murine model; format: in vivo, C57BL/6J mice; settings: 30 mg/kg by oral gavage, FIG. 1
# Protocol: A GI AIEC decolonization murine model studies were performed using a previously published murine model as the basis and run in accordance with animal ethical guidelines at an external contract research organization. Healthy C57BL/6J mice were first administered streptomycin by oral gavage. An AIEC strain (Phylotype D) was then administered at approximately 1-5×10^6 cfu per mouse by oral gavage and fecal pellets were enumerated for AIEC burden. Upon stable colonization (usually after 48 h post-AIEC administration), mice were sorted into three groups of 4 animals each. […] The third group was the control and was given an equivalent volume of sterile saline by oral gavage. Fecal pellets were recovered at various times as indicated on the X-axis of FIG. 1 and AIEC burden quantified by dilution and plating. Two successive fecal pellets were recovered from each mouse per group to sufficiently power the data.
# [15] = ATCC12290, Bacteroidetes, anaerobic agar dilution, read-out: MIC
smiles,measurement,setting,value
O=C(O)c1cn(C2CC2)c2cc(N3CCNCC3)c(F)cc2c1=O [Ciprofloxacin],MIC,[1],16 µg/mL
same,MIC,[2],1 µg/mL
same,MIC,[3],32 µg/mL
same,MIC,[4],32 µg/mL
same,MIC,[5],1 µg/mL
same,MIC,[6],4 µg/mL
same,MIC,[7],16 µg/mL
same,MIC,[8],0.5 µg/mL
same,"antibacterial activity against firmicutes, actinobacteria and bacteroidetes (normal GI flora)",[9],broad potent antibacterial activities
Cc1ncc([N+](=O)[O-])n1CCO [Metronidazole],MIC,[10]; ATCC12290,0.25 µg/mL
same,MIC,[11],1 µg/mL
same,MIC,[1],2 µg/mL
same,MIC,[2],> 64 µg/mL
same,MIC,[3],8 µg/mL
same,MIC,[4],> 64 µg/mL
same,MIC,[5],> 64 µg/mL
same,MIC,[6],8 µg/mL
same,MIC,[7],8 µg/mL
same,MIC,[8],1 µg/mL
same,"antibacterial activity against firmicutes, actinobacteria and bacteroidetes (normal GI flora)",[9],broad potent antibacterial activities
CO[C@H]1/C=C/O[C@@]2(C)Oc3c(C)c(O)c4c(O)c(c5c(nc6cc(C)ccn65)c4c3C2=O)NC(=O)/C(C)=C\C=C\[C@H](C)[C@H](O)[C@@H](C)[C@@H](O)[C@@H](C)[C@H](OC(C)=O)[C@@H]1C [Rifaximin],MIC,[10]; [15],≤ 0.03 µg/mL
same,MIC,[11],> 32 µg/mL
same,MIC,[1],0.5 µg/mL
same,MIC,[2],0.25 µg/mL
same,MIC,[3],0.5 µg/mL
same,MIC,[4],0.06 µg/mL
same,MIC,[5],0.5 µg/mL
same,MIC,[6],0.125 µg/mL
same,MIC,[7],0.25 µg/mL
same,MIC,[8],≤ 0.03 µg/mL
same,"antibacterial activity against firmicutes, actinobacteria and bacteroidetes (normal GI flora)",[9],broad potent antibacterial activities
"CO[C@@]1(NC(=O)C(C(=O)O)c2ccsc2)C(=O)N2[C@@H](C(=O)O)C(C)(C)S[C@@H]21 (stereo partly drawn) [Temocillin, temocillin]",MIC,[10]; [15],> 256 µg/mL
same,antibacterial activity vs. ciprofloxacin resistant isolates,Crohn's AIEC Isolates [12],maintains antibacterial activity vs. ciprofloxacin resistant isolates
same,MIC,[11],> 256 µg/mL
same,MIC,[1],> 256 µg/mL
same,MIC,[2],> 256 µg/mL
same,MIC,[3],> 256 µg/mL
same,MIC,[4],> 256 µg/mL
same,MIC,[5],> 256 µg/mL
same,MIC,[6],> 256 µg/mL
same,MIC,[7],256 µg/mL
same,MIC,[8],> 256 µg/mL
same,richness (number of OTUs),gut microbiome; FIG. 2A,comparable to the untreated (naive) mice and were higher than ciprofloxacin
same,diversity (Shannon index),gut microbiome; FIG. 2B,comparable to the untreated (naive) mice and were higher than ciprofloxacin
same,MIC50,Crohn's AIEC Isolates [13],4 to 8 µg/mL
same,MIC,Crohn's AIEC Isolates [13]; Crohn's AIEC isolate #14,16 µg/mL
same,MIC,Crohn's AIEC Isolates [13]; Crohn's AIEC isolate #32,4 µg/mL
same,MIC,Crohn's AIEC Isolates [13]; Crohn's AIEC isolate #35,16 µg/mL
same,MIC,Crohn's AIEC Isolates [13]; Crohn's AIEC isolate #40,8 µg/mL
same,MIC,Crohn's AIEC Isolates [13]; Crohn's AIEC isolate #49,4 µg/mL
same,MIC,Crohn's AIEC Isolates [13]; Crohn's AIEC isolate #51,8 µg/mL
same,MIC,"[9]; certain firmicutes, actinobacteria and bacteroidetes",> 256 µg/mL
same,"antibacterial activity against firmicutes, actinobacteria and bacteroidetes (normal GI flora)",[9],little or no effect on the normal GI flora
same,AIEC burden in feces (log10 bacterial burden),[14],"effective at lowering AIEC burden in the murine GI tract and performed as well as the current standard-of-care antibiotic, ciprofloxacin"
same,AIEC burden in feces (log10 bacterial burden),[14]; listed as temocillin,effective at lowering the AIEC burden in the murine GI tract
same,AIEC burden after cessation of treatment (rebound),[14]; post-treatment,effective at maintaining the AIEC burden low for days after cessation of treatment
same,time AIEC bacterial growth remained low after treatment,[14]; post-treatment,at least 7 days
